The values below come from PMC10252989, “Significance of Astragaloside IV from the Roots of Astragalus mongholicus as an Acetylcholinesterase Inhibitor—From the Computational and Biomimetic Analyses to the In Vitro and In Vivo Studies of Safety” (International Journal of Molecular Sciences, 2023).

The nature of data set [1]: Biomimetic HPLC lipophilicity determination, IAM column. The following applies: for s (slope of Soczewiński-Wachtmeister equation): ACN-phosphate buffer pH 7.4; for logkw: ACN-phosphate buffer pH 7.4, retention factor extrapolated to pure water. Format: physicochemical. The source says:
(§1) To determine lipophilicity of the tested astragalosides, the biomimetic-High Performance Liquid Chromatography (HPLC) systems with a cholesterol-bound (CHOL) stationary phase as well as the Immobilized Artificial Membrane (IAM) column were used. These stationary phases have pseudomembrane properties and therefore are widely applied in chromatographic practice to determine lipophilicity of various groups of compounds, including newly synthesized ones.
(§2) Based on the Soczewiński–Wachtmeister Equation (1), the logarithms of retention factors extrapolated to pure water (logkw) values were calculated. These values can be considered as an alternative to the n-octanol/water partition coefficient recognized as the lipophilicity descriptor [31]. logk = logkw − sφ(1) where logk is the logarithm of the retention factor in the mixed effluent systems; φ is the volume fraction of organic modifier in the mobile phase; s is the slope characteristic of a given solute in the chromatographic system.
(§3) The Shimadzu Vp liquid chromatographic system (Shimadzu, Kyoto, Japan) equipped with an LC 10AT pump, an SPD 10A UV-Vis detector, an SCL 10A system controller, a CTO-10 AS chromatographic oven and a Rheodyne injector valve with a 20 µL loop was applied in the HPLC measurements.
(§4) The solutions of the isolated A IV as well as pharmacopoeial standards of A I–A III were prepared in methanol (Merck, Darmstadt, Germany; p.a.) at a concentration of 1 mg/mL. […] The optimization process of the chromatographic separation was made before the experiment. The flow rate of the mobile phases was established to be 1 mL/min and the temperature was set at 20 °C. The tested compounds were detected with UV light at λ = 203 nm.
(§5) The IAM.PC.DD2 column (IAM; 100 × 4.6 mm i.d., 10 µm; Regis Technologies, Morton Grove, IL, USA) and cholesterol-bonded (CHOL; Cosmosil; 75 × 2 mm i.d., 2.5 µm; Genore, Warsaw, Poland) were used as the stationary phase while the buffered solutions of acetonitrile (ACN) were used as mobile phases. In each measurement the composition of the mobile phases was: 0.3; 0.4; 0.5; 0.6 v/v ACN-buffer. The buffer was prepared from solutions of both Na2HPO4 (0.02 mol/dm^3) and citric acid (0.01 mol/dm^3).
(§6) The dead-time values were measured from the citric acid peaks. All the reported logarithms of the retention factors were measured three times.

Data set [2] deals with acetylcholinesterase (AChE) enzyme (Homo sapiens, UniProt P22303). The data set is described as follows: TLC bioautography assay for inhibition of acetylcholinesterase. Type of data set: biochemical. Particulars: amount of compound per spot. How it is done: In this study, the reference compounds of astragalosides II (A II), III (A III) and IV (A IV) at different concentrations were injected into the normal phase TLC plate covered with silica gel. Each experiment was repeated three times and the average values of the obtained peak areas corresponding to different injections of pure astragalosides were taken for the calculation of IC50 values of the saponins. For the three astragalosides: II, III and IV the following calibration curve equations were obtained: y = 70,773,628.9063x − 62,644.2995 (R^2 = 0.9732), y = 33,106,972.8125x − 67,429.4097 (R^2 = 0.9771), and y = 48,308,195.3125x + 3538.3021 (R^2 = 0.9981), respectively.
The TLC-bioautography method was used to determine the IC50 values of the tested saponins. Owing to the application of this technique, bright spots of active compounds were registered against the dark background. The TLC chromatogram was obtained on aluminium-covered normal phase TLC plates (Merck, Darmstadt, Germany, silica gel 60 F254).
To calculate the strength of the astragalosides, the IC50 values were determined for astragalosides II, III, and IV. For this purpose, 1 mg/mL solutions of all pure compounds were sprayed on the TLC plate using the Camag Linomat 5 (Muttenz, Switzerland) with the decreasing volumes in the range of 0.002–0.008 mg of compounds per spotevery 1 cm.
Later the TLC plate was subjected to the TLC-bioautography assay towards inhibitory properties against the AChE enzymeas described previously. Briefly, first the TLC plates were sprayed with asolution of 30 mg/20 mL of 1-naphtyl acetate. […] The chromatogram was analysed by the WinCats (v. 1.4, Camag) program and the peak areas of every spot were determined. Based on the numerical values obtained corresponding to the intensity of discoloured zones measured with the peak areas, the calibration curves were determined and the IC50 values were calculated as half of the peak area from the biggest spot that stayedwithin the linearity range area.

A short description of data set [3]: Biomimetic HPLC lipophilicity determination, cholesterol-bound column. The following applies: CHOL column; for s (slope of Soczewiński-Wachtmeister equation): ACN-phosphate buffer pH 7.4; for logkw: ACN-phosphate buffer pH 7.4, retention factor extrapolated to pure water. Type of data set: physicochemical.
Excerpt: as §1, §2, §3, §4, §5, §6

The conditions of data set [4]: post-mortem brain tissues of mice; cited from earlier work.
For data set [5], the system named is SH-SY5Y human neuroblastoma cell line. The data set is described as follows: In vitro cytotoxicity test (MTT). Type of data set: cell-based. The following applies: for cell viability versus control group (saline): 24 h, MTT. How it is done:
The SH-SY5Y human neuroblastoma cell lines (ATCC CRL-2266) were maintained in a1:1 mixture of Eagle’s Minimum Essential Medium and F12 Medium, supplemented with 10% (v/v) of foetal bovine serum. The cells were grown at 37 °C in a humidified incubator with 5% CO2.
The viability of SH-SY5Y cells was evaluated based on the reduction of the yellow tetrazolium salt (3-(4,5-dimethylthiazol-2-yl)-2,5-diphenyltetrazolium bromide or MTT) to the purple formazan crystals by the metabolically active cells. The cells were seeded onto the 96-well plates at the density of 10,000 cells/well, grown overnight and treated with astragaloside IV at 6, 12.5 or 25 μg/mL. Following 24 h of incubation the medium was replaced with 200 µL of fresh medium containing MTT (final concentration 0.5 mg/mL) and the cells were incubated for a further 4 h at 37 °C. The precipitated formazan was dissolved in 100 µL DMSO and the absorbance of the samples was measured at λ = 540 nm. The mean absorbance measured for the control cells, treated with the solvent (saline), was set to 100% cellular viability and used to calculate the percent of viable cells under each experimental condition.

The subject of data set [6] is zebrafish (Danio rerio) embryos. The data set is described as follows: Zebrafish embryo acute toxicity test (OECD Test No. 236). Format: in vivo. How it is done:
Zebrafish (Danio rerio) embryos were obtained from the Experimental Medicine Centre, Medical University of Lublin, Poland. The animals were kept in an incubator under the appropriate environmental conditions (28.5 ± 0.5 °C, light/dark cycle: 14/10 h) up to 96 h post-fertilization (hpf). For the studies, the National Institutes of Health Guide for the Care and Use of Laboratory Animals (Directive 2010/63/EU) was applied. Thus, for the yolk-feeding larvae up to 120 hpf ethical approval is not required. Nevertheless, all attempts were made to minimize the number of animals and their suffering. Immediately after the experiments, the larval zebrafish were euthanized in […] tricaine solution.
In order to assess the effect of astragaloside IV on the developing organism, the zebrafish embryo acute toxicity test was carried out according to the Organization for Economic Cooperation and Development recommendation for the testing of chemicals (Test No. 236) as described previously. One hour after fertilization, viable, perfectly spherical and completely transparent embryos were selected and transferred to 12 well plates (Sarstedt, Germany). The embryos were randomly divided into control and experimental groups. The embryos were kept in each well until the appropriate stage of development was reached of 96 hpf. Two batches of embryos (3 wells per batch, n = 5–6 per well) were kept in 3 mL of zebrafish E3 medium without treatment, i.e., the control group and that was supplemented with 25 µg/mL of astragaloside IV, i.e., the experimental group. Mortality was assessed after 23, 47, 71 and 95 h of exposition. Hatchability was evaluated after 71 and 95 h of exposition. Morphological abnormalities were scored after 95 h of exposition: heartbeat, heart oedema, yolk sac utilization/necrosis, jaw development, eye size, body axis and haemorrhage. Furthermore, to assess muscle function and performance, the touch-evoked response was performed by slight touching of the tail with metal tweezers. The criteria for the larval response were as follows: absent, decreased and normal, as described in detail in our previous paper.
The obtained data were pooled together. The Chi-squared test or the Fisher’s exact test was used for statistical purposes.

Molecules are shown by their SMILES.

Chain of acetylcholinesterase (AChE) enzyme (P22303 32-614): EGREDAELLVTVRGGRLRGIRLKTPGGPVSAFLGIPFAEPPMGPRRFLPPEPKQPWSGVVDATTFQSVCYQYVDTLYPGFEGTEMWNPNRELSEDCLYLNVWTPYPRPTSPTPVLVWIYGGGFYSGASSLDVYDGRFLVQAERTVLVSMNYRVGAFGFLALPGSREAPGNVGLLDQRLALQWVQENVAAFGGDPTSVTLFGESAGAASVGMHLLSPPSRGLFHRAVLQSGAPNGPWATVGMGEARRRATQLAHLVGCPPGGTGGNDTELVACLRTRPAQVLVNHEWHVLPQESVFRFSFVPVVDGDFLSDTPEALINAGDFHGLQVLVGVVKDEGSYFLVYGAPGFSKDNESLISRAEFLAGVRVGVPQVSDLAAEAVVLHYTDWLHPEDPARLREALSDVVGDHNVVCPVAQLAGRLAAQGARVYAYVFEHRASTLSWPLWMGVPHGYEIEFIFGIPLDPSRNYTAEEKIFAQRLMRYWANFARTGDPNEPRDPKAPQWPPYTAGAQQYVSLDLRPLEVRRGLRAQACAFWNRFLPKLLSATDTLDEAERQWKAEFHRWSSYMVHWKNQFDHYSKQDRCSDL

As for `CC(C)(O)[C@@H]1CC[C@](C)([C@H]2[C@@H](O)C[C@@]3(C)[C@@H]4C[C@H](O)[C@H]5C(C)(C)[C@@H](O[C@@H]6OC[C@@H](O)[C@H](O)[C@H]6O[C@@H]6O[C@H](CO)[C@@H](O)[C@H](O)[C@H]6O)CC[C@@]56C[C@@]46CC[C@]23C)O1` [A III, Astragaloside III], in data set [1], the “s (slope of Soczewiński-Wachtmeister equation)” value came to 4.165 and the logkw is reported as 1.807. Further, the IC50 in data set [2] is given as 0.0033 mg. Moreover, in data set [3], the “s (slope of Soczewiński-Wachtmeister equation)” value came to 5.681 and the logkw is given as 2.627.
In the case of `CC(C)(O)[C@@H]1CC[C@](C)([C@H]2[C@@H](O)C[C@@]3(C)[C@@H]4C[C@H](O[C@@H]5O[C@H](CO)[C@@H](O)[C@H](O)[C@H]5O)[C@H]5C(C)(C)[C@@H](O[C@@H]6OC[C@@H](O)[C@H](O)[C@H]6O)CC[C@@]56C[C@@]46CC[C@]23C)O1` [A IV, Astragaloside IV], the logBB in data set [4] is 0.49. Besides, the “cell viability versus control group (saline)” value in data set [5] (25 μg/mL) is given as “slightly lower”; in data set [5] (6 and 12.5 μg/mL) it was “slightly higher”. The “decrease in cellular SH-SY5Y viability” value in data set [5] (all analysed conditions (6, 12.5, 25 μg/mL)) is on record as “no significant decrease”. Further, the “s (slope of Soczewiński-Wachtmeister equation)” value is reported as 3.965 in data set [1] and 6.000 in data set [3]. The logkw in data set [1] is 1.727; in data set [3], 2.668. The molecule further returned an IC50 in data set [2] of 0.00316 mg. In addition, in data set [6] (25 µg/mL, 1, 2, 3 and 4 dpf, p > 0.05), the “mortality rate versus control” value is “no difference”. Also, in data set [6] (25 µg/mL, 3- and 4-day-old fish, p > 0.05), the larval hatchability result is recorded as “did not affect”. Also, the “scored morphological abnormalities versus control” value in data set [6] (25 µg/mL, 95 h exposition) was “no difference”. For the same molecule, the touch-evoked response result in data set [6] (25 µg/mL, 95 h exposition) is listed as “normal”.
As for `CC(=O)OC1C(O)COC(OC2CCC34CC35CCC3(C)C(C6(C)CCC(C(C)(C)O)O6)C(O)CC3(C)C5CC(OC3OC(CO)C(O)C(O)C3O)C4C2(C)C)C1OC(C)=O` (stereo not drawn) [A I, Astragaloside I], the entries for the “s (slope of Soczewiński-Wachtmeister equation)” value in data set [1] and in data set [3] were 6.040 and 5.590, respectively. Besides, the logkw was 2.713 in data set [1] and 3.234 in data set [3].
For `CC(=O)O[C@H]1[C@H](O[C@H]2CC[C@]34C[C@]35CC[C@]3(C)[C@@H]([C@@]6(C)CC[C@@H](C(C)(C)O)O6)[C@@H](O)C[C@@]3(C)[C@@H]5C[C@H](O[C@@H]3O[C@H](CO)[C@@H](O)[C@H](O)[C@H]3O)[C@H]4C2(C)C)OC[C@@H](O)[C@@H]1O` [A II, Astragaloside II], in data set [1], the “s (slope of Soczewiński-Wachtmeister equation)” value is reported as 4.715 and the logkw is recorded as 2.104. Moreover, the IC50 in data set [2] was found to be 0.00488 mg. Also, in data set [3], the “s (slope of Soczewiński-Wachtmeister equation)” value turned out to be 6.570 and the logkw is on record as 3.209.
